From patent US9302999B2, “Substituted triazoles as herbicides” (E. I. DU PONT DE NEMOURS AND COMPANY, priority 2012, dated 2016)

Key:
Type in all cases: in vivo
[1] = tested on: barnyardgrass (Echinochloa crus-galli); test: Test A pre-/postemergence: barnyardgrass
Excerpt: (§1) Seeds of barnyardgrass (Echinochloa crus-galli), crabgrass, large (large crabgrass, Digitaria sanguinalis), foxtail, giant (giant foxtail, Setaria faberii), morningglory (Ipomoea spp.), pigweed (Amaranthus retroflexus), velvetleaf (Abutilon theophrasti), wheat (Triticum aestivum), and corn (Zea mays) were planted into a blend of loam soil and sand and treated preemergence with a directed soil spray using test chemicals formulated in a non-phytotoxic solvent mixture which included a surfactant. At the same time these species were also treated with postemergence applications of test chemicals formulated in the same manner.
(§2) Plants ranged in height from two to ten cm and were in the one- to two-leaf stage for the postemergence treatment. Treated plants and untreated controls were maintained in a greenhouse for approximately ten days, after which time all treated plants were compared to untreated controls and visually evaluated for injury. Plant response ratings, summarized in Table A, are based on a 0 to 100 scale where 0 is no effect and 100 is complete control. A dash (-) response means no test result.

[2] = tested on: crabgrass, large (large crabgrass, Digitaria sanguinalis); test: Test A pre-/postemergence: crabgrass, large
Excerpt: as §1, §2

[3] = tested on: foxtail, giant (giant foxtail, Setaria faberii); test: Test A pre-/postemergence: foxtail, giant
Excerpt: as §1, §2

[4] = tested on: morningglory (Ipomoea spp.); test: Test A pre-/postemergence: morningglory
Excerpt: as §1, §2

[5] = tested on: pigweed (Amaranthus retroflexus); test: Test A pre-/postemergence: pigweed
Excerpt: as §1, §2

[6] = tested on: velvetleaf (Abutilon theophrasti); test: Test A pre-/postemergence: velvetleaf
Excerpt: as §1, §2

[7] = tested on: wheat (Triticum aestivum); test: Test A pre-/postemergence: wheat
Excerpt: as §1, §2

corn (Zea mays) = test: Test A pre-/postemergence: corn
Excerpt: as §1, §2

[8] = Postemergence, 125 g ai/ha, 0 to 100 scale, 0 is no effect, 100 is complete control
[9] = Postemergence, 500 g ai/ha, visual rating on 0 to 100 scale (0 no effect, 100 complete control), approximately ten days
[10] = Preemergence, 125 g ai/ha, 0 to 100 scale where 0 is no effect and 100 is complete control
[11] = Preemergence, 500 g ai/ha, 0 to 100 scale (0 no effect, 100 complete control)
[12] = Postemergence, 1000 g ai/ha, visual rating on 0 to 100 scale (0 no effect, 100 complete control), approximately ten days
[13] = Preemergence, 1000 g ai/ha, 0 to 100 scale, 0 is no effect, 100 is complete control

## CCc1nn(-c2ccc(C(F)(F)F)cc2)nc1Cn1cnc(C(F)(F)F)c1Cl [Compound 121]
[1]; [8]
  Barnyardgrass plant response rating: 0
[1]; [9]
  Barnyardgrass plant response rating: 0
[1]; [10]
  Plant response rating, Barnyardgrass: 0
[1]; [11]
  Plant response rating, Barnyardgrass: 0
[2]; [8]
  Crabgrass, Large plant response rating: 0
[2]; [9]
  Crabgrass, Large plant response rating: 10
[2]; [10]
  Plant response rating, Crabgrass, Large: 0
[2]; [11]
  Plant response rating, Crabgrass, Large: 10
[3]; [8]
  Foxtail, Giant plant response rating: 0
[3]; [9]
  Foxtail, Giant plant response rating: 0
[3]; [10]
  Plant response rating, Foxtail, Giant: 0
[3]; [11]
  Plant response rating, Foxtail, Giant: 0
[4]; [8]
  Morningglory plant response rating: 0
[4]; [9]
  Morningglory plant response rating: 0
[4]; [10]
  Plant response rating, Morningglory: 0
[4]; [11]
  Plant response rating, Morningglory: 0
[5]; [8]
  Pigweed plant response rating: 0
[5]; [9]
  Pigweed plant response rating: 20
[5]; [10]
  Plant response rating, Pigweed: 0
[5]; [11]
  Plant response rating, Pigweed: 0
[6]; [8]
  Velvetleaf plant response rating: 0
[6]; [9]
  Velvetleaf plant response rating: 10
[6]; [10]
  Plant response rating, Velvetleaf: 0
[6]; [11]
  Plant response rating, Velvetleaf: 0
[7]; [8]
  Wheat plant response rating: 0
[7]; [9]
  Wheat plant response rating: 0
[7]; [10]
  Plant response rating, Wheat: 0
[7]; [11]
  Plant response rating, Wheat: 0
Corn (Zea mays); [8]
  Corn plant response rating: 0
Corn (Zea mays); [9]
  Corn plant response rating: 10
Corn (Zea mays); [10]
  Plant response rating, Corn: 0
Corn (Zea mays); [11]
  Plant response rating, Corn: 0

## Cc1nn(-c2ccc(F)cc2)nc1Cn1nc(C(F)(F)F)cc1C [Compound 97]
[1]; [12]
  Barnyardgrass plant response rating: 30
[1]; [13]
  Barnyardgrass plant response rating: 30
[2]; [12]
  Crabgrass, Large plant response rating: 60
[2]; [13]
  Crabgrass, Large plant response rating: 40
[3]; [12]
  Foxtail, Giant plant response rating: 20
[3]; [13]
  Foxtail, Giant plant response rating: 20
[4]; [12]
  Morningglory plant response rating: 40
[4]; [13]
  Morningglory plant response rating: 0
[5]; [12]
  Pigweed plant response rating: 60
[5]; [13]
  Pigweed plant response rating: 0
[6]; [12]
  Velvetleaf plant response rating: 50
[6]; [13]
  Velvetleaf plant response rating: 0
[7]; [12]
  Wheat plant response rating: 0
[7]; [13]
  Wheat plant response rating: 0
Corn (Zea mays); [12]
  Corn plant response rating: 10
Corn (Zea mays); [13]
  Corn plant response rating: 0
